Data: patent US20220112187A1, “PYRAZOLOPYRIDINE AMINE COMPOUNDS FOR THE TREATMENT OF AUTOIMMUNE DISEASE” (Hoffmann-La Roche Inc., priority 2018, published 2022)

Target: T1, human TLR9 (Homo sapiens, UniProt Q9NR96)
T1 sequence (Q9NR96 26-1032): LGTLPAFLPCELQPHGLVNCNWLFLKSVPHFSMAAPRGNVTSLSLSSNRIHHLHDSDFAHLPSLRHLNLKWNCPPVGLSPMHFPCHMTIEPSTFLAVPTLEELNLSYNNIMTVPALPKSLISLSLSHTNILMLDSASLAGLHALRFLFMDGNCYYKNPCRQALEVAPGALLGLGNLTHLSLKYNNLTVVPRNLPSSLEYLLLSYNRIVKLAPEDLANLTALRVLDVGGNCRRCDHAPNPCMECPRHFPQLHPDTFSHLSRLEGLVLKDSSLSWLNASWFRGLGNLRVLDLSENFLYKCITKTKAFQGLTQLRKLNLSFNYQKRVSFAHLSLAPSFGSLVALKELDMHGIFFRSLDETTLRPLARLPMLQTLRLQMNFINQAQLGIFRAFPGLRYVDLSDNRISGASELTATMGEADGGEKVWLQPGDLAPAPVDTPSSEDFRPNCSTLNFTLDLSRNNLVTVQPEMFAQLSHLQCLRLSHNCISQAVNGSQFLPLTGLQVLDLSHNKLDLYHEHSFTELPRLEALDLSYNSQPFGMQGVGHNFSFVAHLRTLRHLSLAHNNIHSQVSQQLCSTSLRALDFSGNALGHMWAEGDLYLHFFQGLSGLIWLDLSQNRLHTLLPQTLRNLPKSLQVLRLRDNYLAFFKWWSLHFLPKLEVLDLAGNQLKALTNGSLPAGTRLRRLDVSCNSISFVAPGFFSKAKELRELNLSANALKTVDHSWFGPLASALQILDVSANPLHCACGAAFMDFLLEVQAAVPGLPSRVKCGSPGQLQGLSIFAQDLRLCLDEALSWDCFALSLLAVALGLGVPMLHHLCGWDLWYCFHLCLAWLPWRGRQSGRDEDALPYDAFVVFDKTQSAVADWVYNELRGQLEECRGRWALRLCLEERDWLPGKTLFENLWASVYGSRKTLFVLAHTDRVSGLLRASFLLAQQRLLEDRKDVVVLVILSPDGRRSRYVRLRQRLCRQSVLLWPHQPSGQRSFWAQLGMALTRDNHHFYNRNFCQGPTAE
Assay: HEK293-Blue-hTLR-9 cells assay (SEAP reporter, ODN2006 stimulation)
Assay type: cell-based
Conditions: HEK293-Blue-hTLR9 cells, ODN2006 ligand, 20 hrs incubation
Source text: A stable HEK293-Blue-hTLR-9 cell line was purchased from InvivoGen (Cat. #: hkb-htlr9, San Diego, Calif., USA). These cells were originally designed for studying the stimulation of human TLR9 by monitoring the activation of NF-κB. A SEAP (secreted embryonic alkaline phosphatase) reporter gene was placed under the control of the IFN-β minimal promoter fused to five NF-κB and AP-1-binding sites. The SEAP was induced by activating NF-κB and AP-1 via stimulating HEK-Blue hTLR9 cells with TLR9 ligands. Therefore the reporter expression was declined by TLR9 antagonist under the stimulation of a ligand, such as ODN2006 (Cat. #: tlr1-2006-1, Invivogen, San Diego, Calif., USA), for incubation of 20 hrs. The cell culture supernatant SEAP reporter activity was determined using QUANTI-Blue™ kit (Cat. #: rep-qb1, Invivogen, San Diego, Calif., USA) at a wavelength of 640 nm, a detection medium that turns purple or blue in the presence of alkaline phosphatase.
HEK293-Blue-hTLR9 cells were incubated at a density of 250,000˜450,000 cells/mL in a volume of 170 μL in a 96-well plate in Dulbecco's Modified Eagle's medium (DMEM) containing 4.5 g/L glucose, 50 U/mL penicillin, […], […], 2 mM L-glutamine, 10% (v/v) heat-inactivated fetal bovine serum with addition of 20 μL test compound in a serial dilution in the presence of final DMSO at 1% and 10 μL of 20 uM ODN2006 in above DMEM, perform incubation under 37° C. in a CO2 incubator for 20 hrs. Then 20 μL of the supernatant from each well was incubated with 180 μL Quanti-blue substrate solution at 37° C. for 2 hrs and the absorbance was read at 620-655 nm using a spectrophotorneter. The signalling pathway that TLR9 activation leads to downstream NF-κB activation has been widely accepted, and therefore similar reporter assay was modified for evaluating TLR9 antagonist.

SMILES	IC50
C[C@@H]1CN(c2ccc(C#N)n3nccc23)C[C@H](CN2CCC(N3CCCCC3)CC2)O1 [Example 16, 4-[(2R,6S)-2-methyl-6-[[4-(1-piperidyl)-1-piperidyl]methyl]morpholin-4-yl]pyrazolo[1,5-a]pyridine-7-carbonitrile]	520 nM
C[C@@H]1CN(c2ccc(C#N)n3nccc23)C[C@H](CN2CCC(N3CCN(C)CC3)CC2)O1 [Example 1, 4-[(2R,6S)-2-methyl-6-[[4-(4-methylpiperazin-1-yl)-1-piperidyl]methyl]morpholin-4-yl]pyrazolo[1,5-a]pyridine-7-carbonitrile]	130 nM
C[C@@H]1CN(c2ccc(C#N)n3nccc23)C[C@H](CNC2CCN(C)CC2)O1 [Example 7, 4-[(2R,6S)-2-methyl-6-[[(1-methyl-4-piperidyl)amino]methyl]morpholin-4-yl]pyrazolo[1,5-a]pyridine-7-carbonitrile]	320 nM
C[C@@H]1CN(c2ccc(C#N)n3nccc23)C[C@H](CN2C3CCC2CNC3)O1 [Example 43, 4-[(2S,6R)-2-(3,8-diazabicyclo[3.2.1]octan-8-ylmethyl)-6-methyl-morpholin-4-yl]pyrazolo[1,5-a]pyridine-7-carbonitrile]	10000 nM
C[C@@H]1CN(c2ccc(C#N)n3nccc23)C[C@H](CN2CCC3(CCNC3)C2=O)O1 (stereo partly drawn) [Example 21, 4-[(2R,6R)-2-methyl-6-[(1-oxo-2,7-diazaspiro[4.4]nonan-2-yl)methyl]morpholin-4-yl]pyrazolo[1,5-a]pyridine-7-carbonitrile]	16000 nM
C[C@@H]1CN(c2ccc(C#N)n3nccc23)C[C@H](CN2C3CCCC2CC(N)C3)O1 (stereo partly drawn) [Example 65, Endo-4-[(2S,6R)-2-[(3-amino-9-azabicyclo[3.3.1]nonan-9-yl)methyl]-6-methyl-morpholin-4-yl]pyrazolo[1,5-a]pyridine-7-carbonitrile]	140 nM
C[C@@H]1CN(c2ccc(C#N)n3nccc23)C[C@H](CN2CC3(CCNC3)CC2=O)O1 (stereo partly drawn) [Example 20, 4-[(2R,6R)-2-methyl-6-[(3-oxo-2,7-diazaspiro[4.4]nonan-2-yl)methyl]morpholin-4-yl]pyrazolo[1,5-a]pyridine-7-carbonitrile]	12000 nM
C[C@@H]1CN(c2ccc(C#N)n3nccc23)C[C@H](CN2C3CCCC2CC(N)C3)O1 (stereo partly drawn) [Example 66, Exo-4-[(2S,6R)-2-[(3-amino-9-azabicyclo[3.3.1]nonan-9-yl)methyl]-6-methyl-morpholin-4-yl]pyrazolo[1,5-a]pyridine-7-carbonitrile]	120 nM
C[C@@H]1CN(c2ccc(C#N)n3nccc23)C[C@H](CN2CC3(CCCNC3)C2)O1 [Example 10, 4-[(2S,6R)-2-(2,8-diazaspiro[3.5]nonan-2-ylmethyl)-6-methyl-morpholin-4-yl]pyrazolo[1,5-a]pyridine-7-carbonitrile]	80 nM
C[C@@H]1CN(c2ccc(C#N)n3nccc23)C[C@H](CN2CCC(N)CC2)O1 [Example 17, 4-[(2S,6R)-2-[(4-amino-1-piperidyl)methyl]-6-methyl-morpholin-4-yl]pyrazolo[1,5-a]pyridine-7-carbonitrile]	180 nM

Further lines, results first:

IC50	SMILES
510 nM	C[C@@H]1CN(c2ccc(C#N)n3nccc23)C[C@H](CN2CCC(N3CCCC3)CC2)O1 [Example 54, 4-[(2R,6S)-2-methyl-6-[(4-pyrrolidin-1-yl-1-piperidyl)methyl]morpholin-4-yl]pyrazolo[1,5-a]pyridine-7-carbonitrile]
250 nM	C[C@@H]1CN(c2ccc(C#N)n3nccc23)C[C@H](CN2CCC3(CCN3)CC2)O1 [Example 48, 4-[(2S,6R)-2-(1,7-diazaspiro[3.5]nonan-7-ylmethyl)-6-methyl-morpholin-4-yl]pyrazolo[1,5-a]pyridine-7-carbonitrile]
140 nM	C[C@@H]1CN(c2ccc(C#N)n3nccc23)C[C@H](CN2CC3(CCCNCC3)C2)O1 [Example 46, 4-[(2S,6R)-2-(2,8-diazaspiro[3.6]decan-2-ylmethyl)-6-methyl-morpholin-4-yl]pyrazolo[1,5-a]pyridine-7-carbonitrile]
87 nM	C[C@@H]1CN(c2ccc(C#N)n3ncc(F)c23)C[C@H](CN2CCCC3(CCNCC3)C2)O1 [Example 67, 4-[(2S,6R)-2-(2,9-diazaspiro[5.5]undecan-2-ylmethyl)-6-methyl-morpholin-4-yl]-3-fluoro-pyrazolo[1,5-a]pyridine-7-carbonitrile]
14000 nM	CC1CN(C[C@H]2CN(c3ccc(C#N)n4nccc34)C[C@@H](C)O2)CCN1 (stereo partly drawn) [Example 28, 4-[(2R,6S)-2-methyl-6-[(3-methylpiperazin-1-yl)methyl]morpholin-4-yl]pyrazolo[1,5-a]pyridine-7-carbonitrile]
6100 nM	C[C@@H]1CN(c2ccc(C#N)n3nccc23)C[C@H](CN2CCCC3CNCC32)O1 (stereo partly drawn) [Example 61, 4-[(2S,6R)-2-(2,3,4,4a,5,6,7,7a-octahydropyrrolo[3,4-b]pyridin-1-ylmethyl)-6-methyl-morpholin-4-yl]pyrazolo[1,5-a]pyridine-7-carbonitrile]
25000 nM	C[C@@H]1CN(c2ccc(C#N)n3nccc23)C[C@H](CN2CCC23CNC3)O1 [Example 55, 4-[(2S,6R)-2-(1,6-diazaspiro[3.3]heptan-1-ylmethyl)-6-methyl-morpholin-4-yl]pyrazolo[1,5-a]pyridine-7-carbonitrile]
290 nM	C[C@@H]1CN(c2ccc(C#N)n3nccc23)C[C@H](CN2C[C@H]3CC[C@@H](N(C)C)[C@H]3C2)O1 (racemic) [Example 75, 4-[(2S,6R)-2-[[4-(dimethylamino)-3,3a,4,5,6,6a-hexahydro-1H-cyclopenta[c]pyrrol-2-yl]methyl]-6-methyl-morpholin-4-yl]pyrazolo[1,5-a]pyridine-7-carbonitrile]
120 nM	C[C@@H]1CN(c2ccc(C#N)n3nccc23)C[C@H](CN2CCCC3(CNC3)C2)O1 [Example 33, 4-[(2S,6R)-2-(2,6-diazaspiro[3.5]nonan-6-ylmethyl)-6-methyl-morpholin-4-yl]pyrazolo[1,5-a]pyridine-7-carbonitrile]
970 nM	C[C@@H]1CN(c2ccc(C#N)n3nccc23)C[C@H](CN2CC3CCCNC3C2)O1 (stereo partly drawn) [Example 45, 4-[(2S,6R)-2-(1,2,3,4,4a,5,7,7a-octahydropyrrolo[3,4-b]pyridin-6-ylmethyl)-6-methyl-morpholin-4-yl]pyrazolo[1,5-a]pyridine-7-carbonitrile]
140 nM	C[C@@H]1CN(c2ccc(C#N)n3nccc23)C[C@H](CN2CCC3NCCC3C2)O1 (stereo partly drawn) [Example 41, 4-[(2S,6R)-2-(1,2,3,3a,4,6,7,7a-octahydropyrrolo[3,2-c]pyridin-5-ylmethyl)-6-methyl-morpholin-4-yl]pyrazolo[1,5-a]pyridine-7-carbonitrile]
220 nM	C[C@@H]1CN(c2ccc(C#N)n3nccc23)C[C@H](CN2CC[C@H](N)[C@H](C)C2)O1 [Example 74, 4-[(2S,6R)-2-[[(3R,4S)-4-amino-3-methyl-1-piperidyl]methyl]-6-methyl-morpholin-4-yl]pyrazolo[1,5-a]pyridine-7-carbonitrile]
160 nM	C[C@@H]1CN(c2ccc(C#N)n3nccc23)C[C@H](CN2CCC3(CCCN3)CC2)O1 [Example 53, 4-[(2S,6R)-2-(1,8-diazaspiro[4.5]decan-8-ylmethyl)-6-methyl-morpholin-4-yl]pyrazolo[1,5-a]pyridine-7-carbonitrile]
